# From US20040142317A1, “Use of amino acid transporter atbo,+ as a delivery system for drugs and prodrugs” (priority 2003, published 2004)
# What was measured:
# ATA3 = molecular target: T1, ATA3 (Homo sapiens, UniProt Q969I6); assay: D-[3H]-serine transport in HRPE cells transfected with transporter cDNA; format: cell-based; conditions: D-[3H]-serine 5 μM
# T1 construct: expressed in transfected cells; host or cells: HRPE cells
# T1 sequence (Q969I6 1-547): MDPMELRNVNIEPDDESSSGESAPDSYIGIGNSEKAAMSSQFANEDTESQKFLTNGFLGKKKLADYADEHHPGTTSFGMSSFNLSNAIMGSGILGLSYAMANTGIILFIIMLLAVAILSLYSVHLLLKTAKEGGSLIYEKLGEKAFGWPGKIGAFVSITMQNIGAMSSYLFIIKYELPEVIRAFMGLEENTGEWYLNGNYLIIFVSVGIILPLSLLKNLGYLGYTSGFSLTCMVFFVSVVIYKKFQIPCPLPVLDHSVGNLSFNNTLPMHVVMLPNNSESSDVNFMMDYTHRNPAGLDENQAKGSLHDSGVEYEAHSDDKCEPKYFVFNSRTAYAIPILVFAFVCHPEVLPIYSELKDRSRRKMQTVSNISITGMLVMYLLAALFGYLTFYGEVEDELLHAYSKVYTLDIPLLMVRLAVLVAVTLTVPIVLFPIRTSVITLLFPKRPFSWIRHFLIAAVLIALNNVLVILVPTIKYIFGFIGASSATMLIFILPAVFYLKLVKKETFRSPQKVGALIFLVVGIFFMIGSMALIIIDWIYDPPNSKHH
# Experimental: (§1) Transport of D-[^3H]-serine (5 μM) was measured in HRPE cells transfected with cDNA of each transporter.
# (§2) The present inventors evaluated the function of 10 different amino acid transporter clones with respect to transport of D-serine in heterologous expression systems (FIG. 11). All of these transporters are expressed in the intestinal tract. The list of the transporters tested include three energy-independent, heterodimeric facilitative transporters (L1, L2, and b^0,+), three subtypes of the Na^+-coupled system A (ATA1, ATA2, and ATA3), two subtypes of the Na^+- and H^+-coupled system N (SN1 and SN2), the Na^+-coupled system ATB^0, and the Na^+- and Cl^−-coupled system ATB^0,+. […] The ability to transport D-serine was the highest for the Na^+- and Cl^−-coupled transporter ATB^0,+. ATB^0,+ belongs to the gene family of neurotransmitter transporters whose transport function is energized by multiple driving forces, namely a Na^+ gradient, a Cl^− gradient, and membrane potential. […] Based on the energetics of these two transport systems, ATB^0,+ is expected to play the leading role in this process.
# ATB^0,+ = molecular target: T2, ATB^0,+ (Mus musculus, UniProt Q9JMA9); assay: as above; format: cell-based; conditions: D-[3H]-serine 5 μM
# T2 construct: expressed in transfected cells; host or cells: HRPE cells
# T2 sequence (Q9JMA9 1-638): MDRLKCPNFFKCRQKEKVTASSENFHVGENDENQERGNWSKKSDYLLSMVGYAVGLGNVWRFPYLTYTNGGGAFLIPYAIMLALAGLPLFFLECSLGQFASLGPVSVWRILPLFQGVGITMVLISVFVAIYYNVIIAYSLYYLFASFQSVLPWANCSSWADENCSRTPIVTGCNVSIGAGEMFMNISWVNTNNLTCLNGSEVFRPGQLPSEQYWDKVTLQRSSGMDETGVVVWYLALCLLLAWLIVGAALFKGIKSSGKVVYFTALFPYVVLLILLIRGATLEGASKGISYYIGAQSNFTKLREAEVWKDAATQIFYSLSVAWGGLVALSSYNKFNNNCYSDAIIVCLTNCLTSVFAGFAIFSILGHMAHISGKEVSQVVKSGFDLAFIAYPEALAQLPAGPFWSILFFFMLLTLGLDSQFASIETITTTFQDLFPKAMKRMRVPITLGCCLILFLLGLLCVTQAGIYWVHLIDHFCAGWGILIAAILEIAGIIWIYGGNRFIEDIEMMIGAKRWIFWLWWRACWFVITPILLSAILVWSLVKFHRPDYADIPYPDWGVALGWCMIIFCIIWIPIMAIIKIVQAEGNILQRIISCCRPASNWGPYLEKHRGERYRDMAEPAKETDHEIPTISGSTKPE
# Experimental: as §1, §2
# LAT2/4F2hc = molecular target: T3, LAT2/4F2hc (Homo sapiens, UniProt Q9UHI5); assay: as above; format: cell-based; conditions: D-[3H]-serine 5 μM
# T3 construct: expressed in transfected cells; host or cells: HRPE cells
# T3 sequence (Q9UHI5 1-535): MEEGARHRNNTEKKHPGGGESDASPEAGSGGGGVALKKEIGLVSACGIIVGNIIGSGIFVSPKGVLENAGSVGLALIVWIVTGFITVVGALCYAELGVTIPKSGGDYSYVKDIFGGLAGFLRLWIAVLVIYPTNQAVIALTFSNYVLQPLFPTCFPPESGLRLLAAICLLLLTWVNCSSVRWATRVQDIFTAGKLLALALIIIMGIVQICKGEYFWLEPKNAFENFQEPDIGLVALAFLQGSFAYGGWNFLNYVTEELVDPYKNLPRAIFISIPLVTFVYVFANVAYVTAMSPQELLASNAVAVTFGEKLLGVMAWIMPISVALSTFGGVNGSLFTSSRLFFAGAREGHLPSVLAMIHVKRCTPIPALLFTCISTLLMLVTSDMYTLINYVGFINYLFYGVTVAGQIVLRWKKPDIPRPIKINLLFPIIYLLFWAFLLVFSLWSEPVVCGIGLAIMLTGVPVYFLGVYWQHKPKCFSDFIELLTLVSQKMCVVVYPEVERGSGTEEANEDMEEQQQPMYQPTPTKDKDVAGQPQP
# T3 sequence (P08195 1-529 partner): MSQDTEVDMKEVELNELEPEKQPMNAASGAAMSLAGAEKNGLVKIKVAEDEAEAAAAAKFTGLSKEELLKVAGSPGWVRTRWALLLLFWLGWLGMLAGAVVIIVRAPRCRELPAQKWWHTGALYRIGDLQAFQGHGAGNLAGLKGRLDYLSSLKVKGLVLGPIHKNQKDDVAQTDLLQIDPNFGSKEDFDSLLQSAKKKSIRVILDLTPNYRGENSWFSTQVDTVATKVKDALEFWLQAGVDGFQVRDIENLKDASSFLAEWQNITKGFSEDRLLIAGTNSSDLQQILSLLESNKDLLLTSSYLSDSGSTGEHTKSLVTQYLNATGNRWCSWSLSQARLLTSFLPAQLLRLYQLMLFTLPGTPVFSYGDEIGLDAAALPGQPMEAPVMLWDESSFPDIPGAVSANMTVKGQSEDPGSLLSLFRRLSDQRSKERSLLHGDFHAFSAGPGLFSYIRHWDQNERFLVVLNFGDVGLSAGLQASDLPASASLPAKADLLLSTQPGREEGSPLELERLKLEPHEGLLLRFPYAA
# Experimental: as §1, §2
# mouse ATB^0,+ = molecular target: T4, mouse ATB^0,+ (Mus musculus, UniProt Q9JMA9); conditions: D-amino acid 1 mM; NaCl pH 7.5
# T4 sequence (Q9JMA9 1-638): T2 sequence (Q9JMA9 1-638)
compound,measurement,setting,value
"N[C@H](CO)C(=O)O [D-Serine, D-serine]",D-serine transport,ATA3,did not
same,D-serine transport,"ATB^0,+",highest
same,D-serine transport,LAT2/4F2hc,did not exhibit detectable D-serine transport activity
same,"Current in X. laevis oocytes (nA), D-isomer","mouse ATB^0,+",267 ± 23 nA
